Laboratory results taken from US10993936B2, “Method of treating one or more symptoms of pulmonary fibrosis by administering inhibitors of nicotinamide phosphoribotransferase” (Arizona Board of Regents on Behalf of the University of …, priority 2017, dated 2021).

Assays:
[1] = system: IPF fibroblasts; experiment: staurosporine-induced apoptosis in IPF lung myofibroblasts; format: cell-based, human; conditions: IPF fibroblasts pre-treated with FK-866; FIG. 11B
Description: Human lung tissue and fibroblasts were isolated from the lungs of patients with a confirmed diagnosis of IPF as previously described (18), under an approved protocol by the Institutional Review Board. Fibroblasts were isolated and evaluated for apoptosis, senescence, and ROS levels by immunofluorescence, immunohistochemistry, and/or biochemical assays.
Cells were lysed using caspase lysis buffer and analyzed for activated caspase 3 using the BioVision Caspase 3 Fluorometric Assay Kit according to the manufacturer's instructions (BioVision, Inc, Milpitas Calif.).
Nampt contributes to mouse and human IPF fibroblasts resistance to apoptosis. Staurosporine (300 nM, 8 h)-induced expression of apoptotic markers, cleaved caspase 3 and PARP (FIG. 11A) was increased in lung fibroblasts isolated from Nampt+/− compared with WT mice.

[2] = system: H2O2-induced apoptosis; experiment: H2O2-induced apoptosis defined by the TUNEL assay; format: cell-based; conditions: FIG. 14
Procedure: Slices were first incubated with anti-αSMA overnight at 4° C. After the TUNEL protocol, slides were mounted in DAPI-containing media (Vector Labs) and cells were visualized on a Zeiss fluorescent microscope. TUNEL-positive cells were counted per field in 15-20 fields and normalized to total cells from the DAPI stain.
FIGS. 12A-D show chemical structure of the NAMPT inhibitor, FK-866 (FIG. 12A) which is divided into three regions (FIG. 12B) and varied by replacing with N-heterocycles to generate novel FK866 analogs: MS-1-82 (FIG. 12C), Rari049 (FIG. 12D), Alpii135 (FIG. 12E); FIG. 13 is a bar graph showing normalized NAMPT activity in the present of FK866 and FK analogues MS-1-82, Rari049, Alpii135 at […] concentrations; FIG. 14 is a bar graph showing the role of Nampt enzymatic activity in H2O2-induced apoptosis defined by the TUNEL assay.

[3] = MCT-PH preventive therapy study; format: in vivo; conditions: preliminary studies
Description: To generate functional analogs of the NAMPT inhibitor FK-866, the FK-866 structure was divided into three regions and varied by replacing with N-heterocycles to generate FK866 analogs.

Compound | staurosporine-induced apoptosis [1] | H2O2-induced apoptosis [2] | hyper-trophy-ratio of RV and LV plus septal-S weight (RVH-RV) [3] | right ventricular systolic pressure (RVSP) [3]
O=C(/C=C/c1cccnc1)NCCCCC1CCN(C(=O)c2ccccc2)CC1 [FK-866, (E)-N-[4-(1-Benzoylpiperidin-4-yl)butyl]-3-pyridin-3-ylprop-2-enamide] | restored apoptosis | blocks H2O2-induced apoptosis |  | 
O=C(/C=C/c1cccnc1)NCCCCCCn1c(-c2ccccc2)cc2ccccc21 [Rari049] |  |  | reducing | reducing
